One test addresses HDAC1 (Homo sapiens (Human), UniProt Q13547). The following applies: read-out: HDAC1 IC50.
The next test concerns the target HDAC5 (Homo sapiens (Human), UniProt Q9UQL6). The following applies: read-out: HDAC5 IC50.

Consider 23 molecules from patent US11066396B2 (priority 2016, dated 2021).

Sequence of HDAC1 (Q13547 whole entry): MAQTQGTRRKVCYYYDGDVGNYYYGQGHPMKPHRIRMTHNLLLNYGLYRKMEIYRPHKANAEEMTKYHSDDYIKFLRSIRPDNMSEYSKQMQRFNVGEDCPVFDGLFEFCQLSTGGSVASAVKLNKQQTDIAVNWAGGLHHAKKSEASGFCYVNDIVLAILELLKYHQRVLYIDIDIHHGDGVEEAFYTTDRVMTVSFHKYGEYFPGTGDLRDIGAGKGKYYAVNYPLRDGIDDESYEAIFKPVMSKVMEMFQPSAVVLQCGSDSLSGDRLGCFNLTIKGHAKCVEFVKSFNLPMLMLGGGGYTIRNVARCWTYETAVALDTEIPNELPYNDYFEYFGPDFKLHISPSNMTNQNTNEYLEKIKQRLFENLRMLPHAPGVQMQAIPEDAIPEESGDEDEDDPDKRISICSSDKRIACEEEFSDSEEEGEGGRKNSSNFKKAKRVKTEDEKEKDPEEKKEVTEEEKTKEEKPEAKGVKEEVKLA
Sequence of HDAC5 (Q9UQL6 656-1122): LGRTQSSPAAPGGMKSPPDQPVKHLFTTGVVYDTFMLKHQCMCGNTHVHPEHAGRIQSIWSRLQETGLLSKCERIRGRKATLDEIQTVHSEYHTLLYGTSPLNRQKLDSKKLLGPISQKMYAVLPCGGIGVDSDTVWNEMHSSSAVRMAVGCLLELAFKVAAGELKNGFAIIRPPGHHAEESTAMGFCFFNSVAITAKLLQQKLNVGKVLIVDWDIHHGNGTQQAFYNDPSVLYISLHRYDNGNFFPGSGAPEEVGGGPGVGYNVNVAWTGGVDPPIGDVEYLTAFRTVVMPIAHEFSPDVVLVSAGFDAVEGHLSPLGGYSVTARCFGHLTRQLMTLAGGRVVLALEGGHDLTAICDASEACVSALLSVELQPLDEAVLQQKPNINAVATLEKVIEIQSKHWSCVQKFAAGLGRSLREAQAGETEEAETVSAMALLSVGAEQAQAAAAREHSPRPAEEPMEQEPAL

Usually IC50 stands for the concentration needed to halve the response being measured. Consider `O=S1(=O)CCC(S(=O)(=O)N(Cc2ccc(-c3noc(C(F)(F)F)n3)cc2)c2cccc(C(F)(F)F)c2)C1` (racemic) [Example 492, 1,1-dioxo-N-({4-[5-(trifluoromethyl)-1,2,4-oxadiazol-3-yl]phenyl}methyl)-N-[3-(trifluoromethyl)phenyl]-llambda~6~-thiolane-3-sulfonamide], for which the IC50 worked out at 1200 nM on HDAC1 and 390 nM on HDAC5.
As for `O=C(N1CCOCC1)N(Cc1ncc(-c2noc(C(F)(F)F)n2)cn1)c1cccc(C(F)(F)F)c1` [Example 50, N-((5-(5-(trifluoromethyl)-1,2,4-oxadiazol-3-yl)pyrimidin-2-yl)methyl)-N-(3-(trifluoromethyl)phenyl)morpholine-4-carboxamide], the 50% inhibitory concentration (IC50) on HDAC1 stood at 240 nM; at HDAC5, 820 nM.
The matching figures for `Fc1cc(-c2noc(C(F)(F)F)n2)ccc1COc1ccccc1` [Example 168, 3-(3-Fluoro-4-(phenoxymethyl)phenyl)-5-(trifluoromethyl)-1,2,4-oxadiazole]: 15000 nM and 1100 nM.
For `CCNC(=O)NC(Cc1ccc(-c2noc(C(F)(F)F)n2)cn1)c1cccc(C(F)(F)F)c1` (stereo not shown) [Example 179, 1-Ethyl-3-(2-(5-(5-(trifluoromethyl)-1,2,4-oxadiazol-3-yl)pyridin-2-yl)-1-(3-(trifluoromethyl)phenyl)ethyl)urea] the same measures were 340 nM and 390 nM.
For `COC(=O)NC(Cc1ccc(-c2noc(C(F)(F)F)n2)cn1)c1cccc(C(F)(F)F)c1` (stereo not shown) [Example 180] the same measures were 650 nM and 650 nM.
For `Fc1ccccc1OCc1cc(-c2noc(C(F)(F)F)n2)ccn1` [Example 250, 2-[(2-fluorophenoxy)methyl]-4-[5-(trifluoromethyl)-1,2,4-oxadiazol-3-yl]pyridine], the concentration for half-maximal inhibition (IC50) on HDAC1 was 3100 nM; at HDAC5, 910 nM.
Take `Fc1cc(COc2cccnn2)ccc1-c1noc(C(F)(F)F)n1` [Example 257, 3-({3-fluoro-4-[5-(trifluoromethyl)-1,2,4-oxadiazol-3-yl]phenyl}methoxy)pyridazine]: the half-maximal inhibitory concentration (IC50) on HDAC1 came out at 6400 nM; at HDAC5, 200 nM.
For `COc1cncc(OCc2ccc(-c3noc(C(F)(F)F)n3)c(F)c2)c1` [Example 258, 3-({3-fluoro-4-[5-(trifluoromethyl)-1,2,4-oxadiazol-3-yl]phenyl}methoxy)-5-methoxypyridine] the same measures were 1200 nM and 150 nM.
On to `Fc1cc(COc2cnc3[nH]ccc3c2)ccc1-c1noc(C(F)(F)F)n1` [Example 259, 5-({3-fluoro-4-[5-(trifluoromethyl)-1,2,4-oxadiazol-3-yl]phenyl}methoxy)-1H-pyrrolo[2,3-b]pyridine], for which the IC50 is 4200 nM at HDAC1 and 84 nM at HDAC5.
On to `Fc1ccc(OCc2ccc(-c3noc(C(F)(F)F)n3)c(F)c2)cn1` [Example 260, 2-fluoro-5-({3-fluoro-4-[5-(trifluoromethyl)-1,2,4-oxadiazol-3-yl]phenyl}methoxy)pyridine], for which the IC50 at HDAC1 was 12000 nM; on HDAC5, 120 nM.
For `Fc1ccc2ccc(OCc3ccc(-c4noc(C(F)(F)F)n4)c(F)c3)nc2n1` [Example 261, 2-fluoro-7-({3-fluoro-4-[5-(trifluoromethyl)-1,2,4-oxadiazol-3-yl]phenyl}methoxy)-1,8-naphthyridine] the same measures were 850 nM and 24 nM.
For `Fc1cc(COc2nnnc3ccccc23)ccc1-c1noc(C(F)(F)F)n1` [Example 262, 4-({3-fluoro-4-[5-(trifluoromethyl)-1,2,4-oxadiazol-3-yl]phenyl}methoxy)-1,2,3-benzotriazine] the same measures were 2900 nM and 120 nM.
Take `Cc1ccc(OCc2ccc(-c3noc(C(F)(F)F)n3)c(F)c2)nn1` [Example 263, 3-({3-fluoro-4-[5-(trifluoromethyl)-1,2,4-oxadiazol-3-yl]phenyl}methoxy)-6-methylpyridazine]: the IC50 on HDAC1 is 5300 nM; at HDAC5, 240 nM.
The matching figures for `NC(=O)c1cccc(OCc2ccc(-c3noc(C(F)(F)F)n3)c(F)c2)c1` [Example 264, 3-({3-fluoro-4-[5-(trifluoromethyl)-1,2,4-oxadiazol-3-yl]phenyl}methoxy)benzamide]: 2200 nM and 90 nM.
As to `Fc1cc(COc2cccc3c2CNCC3)ccc1-c1noc(C(F)(F)F)n1` [Example 265, 8-({3-fluoro-4-[5-(trifluoromethyl)-1,2,4-oxadiazol-3-yl]phenyl}methoxy)-1,2,3,4-tetrahydroisoquinoline], the IC50 at HDAC1 amounted to 5600 nM; at HDAC5 it was 280 nM.
As to `Cc1ccnnc1OCc1ccc(-c2noc(C(F)(F)F)n2)c(F)c1` [Example 266, 3-({3-fluoro-4-[5-(trifluoromethyl)-1,2,4-oxadiazol-3-yl]phenyl}methoxy)-4-methylpyridazine], the IC50 turned out to be 6600 nM on HDAC1 and 250 nM at HDAC5.
The matching figures for `NCc1cccc(OCc2ccc(-c3noc(C(F)(F)F)n3)c(F)c2)c1` [Example 267, 1-[3-({3-fluoro-4-[5-(trifluoromethyl)-1,2,4-oxadiazol-3-yl]phenyl}methoxy)phenyl]methanamine]: 1100 nM and 200 nM.
For `Fc1cc(COc2nccc3nccn23)ccc1-c1noc(C(F)(F)F)n1` [Example 268, 5-({3-fluoro-4-[5-(trifluoromethyl)-1,2,4-oxadiazol-3-yl]phenyl}methoxy)imidazo[1,2-c]pyrimidine] the same measures were 2900 nM and 120 nM.
The matching figures for `Cc1cncc(OCc2ccc(-c3noc(C(F)(F)F)n3)c(F)c2)c1` [Example 269, 3-({3-fluoro-4-[5-(trifluoromethyl)-1,2,4-oxadiazol-3-yl]phenyl}methoxy)-5-methylpyridine]: 7100 nM and 500 nM.
With `NCc1ccccc1OCc1ccc(-c2noc(C(F)(F)F)n2)c(F)c1` [Example 270, 1-[2-({3-fluoro-4-[5-(trifluoromethyl)-1,2,4-oxadiazol-3-yl]phenyl}methoxy)phenyl]methanamine], the results for the IC50 on HDAC1 and on HDAC5 were 2300 nM and 160 nM, respectively.
For `Fc1cc(COc2cccc3[nH]ncc23)ccc1-c1noc(C(F)(F)F)n1` [Example 271, 4-({3-fluoro-4-[5-(trifluoromethyl)-1,2,4-oxadiazol-3-yl]phenyl}methoxy)-1H-indazole] the same measures were 3700 nM and 85 nM.
Consider `Fc1cc(COc2nc3cccnc3n2C2CC2)ccc1-c1noc(C(F)(F)F)n1` [Example 272, 3-cyclopropyl-2-({3-fluoro-4-[5-(trifluoromethyl)-1,2,4-oxadiazol-3-yl]phenyl}methoxy)-3H-imidazo[4,5-b]pyridine], for which the IC50 at HDAC1 came out at 630 nM; on HDAC5 it was 31 nM.
The matching figures for `Cn1c(OCc2ccc(-c3noc(C(F)(F)F)n3)c(F)c2)nc2ncccc21` [Example 273, 2-({3-fluoro-4-[5-(trifluoromethyl)-1,2,4-oxadiazol-3-yl]phenyl}methoxy)-1-methyl-1H-imidazo[4,5-b]pyridine]: 720 nM and 28 nM.
